Here are results for six substances from patent publication US20030088057A1, “PEPTIDE SUBSTRATES PHOSPHORYLATED BY P21-ACTIVAGED PROTEIN KINASE STATEMENT REGARDING FEDERALLY SPONSORED REASEARCH OR DEVELOPMENT” (priority 1998, published 2003).

Read-outs that look alike come from different tables or passages of the source. No end group written: not given here.

One experiment deals with T1, PKA (Bos taurus, UniProt P00517).
T1 construct: the purified catalytic subunit of cAMP-dependent protein kinase from bovine heart was a gift; from tissue; host or cells: bovine heart (gift from Dr. William H. Fletcher)
Nature of the experiment: Rates of phosphorylation of synthetic peptides by PKA. The conditions noted are these: for 32P incorporated: PKA (10.5 units), 0.14 mM ATP; for 32P incorporated, %: PKA, AKRASAA taken as 100%. It is filed as biochemical, bovine. An excerpt:
A. Materials. γ-PAK was purified from rabbit reticulocytes to apparent homogeneity by chromatography on DEAE-cellulose, SP-Sepharose, protamine agarose, and FPLC on Mono S and Mono Q. Histone I (type IIIS), mixed histone (type IIAS), trypsin (L-1-tosylamido-2-phenylethyl chloromethyl ketone treated), soybean trypsin inhibitor, bovine serum albumin (fatty acid free), and myelin basic protein were purchased from Sigma. Purified histones 2B and 4 were purchased from Boehringer-Mannheim. […] Protein kinase C was purified from bovine brain according to the procedure of Walton et al. [Walton, G. M., et al., Anal Biochem., 161:425-437 (1987)], with modifications [Venema, R. C., et al., J. Biol. Chem., 266:5298-5302 (1991)]. The clone for GST-Cdc42 was generously provided by Dr. Channing Der, University of North Carolina, Chapel Hill, N.C. Cellulose thin-layer chromatography sheets were from Kodak.
(§1) Reactions with PKA (10.5 units) were carried out under the same conditions as with γ-PAK except that 0.14 mM ATP was used. Reactions with PKC (3.4 units) were performed as with PKA, with the addition of 0.4 mM CaCl2, phosphatidylinositol (15 μg/mL), phosphatidylserine (15 μg/ mL), and 1,2-diolein (3 μg/mL), as described [Tuazon, P. T., et al., (1989), supra]. A unit of PKA or PKC is defined as the amount of enzyme that incorporates 1 pmol of phosphate/min at 30° C. into histone IIAS or histone 1, respectively.
PKA and PKC are known to require basic amino acids on the N-terminal side of the phosphorylatable serine/ threonine. To distinguish their substrate specificities from that of γ-PAK, the relative rates of phosphorylation were determined with the synthetic peptide substrates using the conditions for γ-PAK, with the addition of Ca^2+ and phospholipids for PKC.

The test system of experiment [1] is γ-PAK. In words: Kinetic parameters (Km, Vmax) for phosphorylation of synthetic peptides by γ-PAK. The note with it: for Km: read-out: Km. It is filed as biochemical, rabbit. Here is the method:
(§2) Assays with peptides (I mM) were carried out with γ-PAK (1.6-5.6 units) in 25 μL reaction mixtures incubated for 30 min at 30° C. under conditions described above, except that 0.4 mg/mL of bovine serum albumin was added and the specific activity of ATP was 300-2000 cpm/pmol. Reactions were terminated with 5 μL of 100 mM ATP, and the amount of ^32p incorporated was quantitated by precipitation of 20 μL aliquots on P81 phosphocellulose paper with 75 mM H3PO4 as described previously [Bensen, E. S., et al., Biochim. Biophys. Acta, 1292:249-258 (1996)]. Peptides containing only one basic amino acid were analyzed by thin-layer electrophoresis on cellulose sheets for 2 h at 600 V with pyridine/acetic acid/water (10:100:890), pH 3.5, as solvent, as described previously [Bensen, E. S., et al., supra]. Activation of γ-PAK by autophosphorylation in the presence of Cdc42(GTPγS) was performed as previously described [Jakobi, R., et al., supra]. γ-PAK was also activated by limited digestion with trypsin as described previously [Rooney, R. D., et al., (1996), supra].

For another experiment, the system named is PKC. In words: Rates of phosphorylation of synthetic peptides by PKC. It counts as biochemical, bovine. The note with it: for 32P incorporated: PKC (3.4 units), with Ca2+ and phospholipids, 0.14 mM ATP; for 32P incorporated, %: PKC, AKRASAA taken as 100%.
From the text: (§3) A. Materials. γ-PAK was purified from rabbit reticulocytes to apparent homogeneity by chromatography on DEAE-cellulose, SP-Sepharose, protamine agarose, and FPLC on Mono S and Mono Q. Histone I (type IIIS), mixed histone (type IIAS), trypsin (L-1-tosylamido-2-phenylethyl chloromethyl ketone treated), soybean trypsin inhibitor, bovine serum albumin (fatty acid free), and myelin basic protein were purchased from Sigma. Purified histones 2B and 4 were purchased from Boehringer-Mannheim. Myosin light chain from rabbit skeletal muscle was a gift from Dr. James Stull, University of Texas Southwestern Medical Center, Dallas, Tex.; rat prolactin was provided by Dr. Ameae Walker, University of California, Riverside, Calif.; and the purified catalytic subunit of cAMP-dependent protein kinase from bovine heart was a gift from Dr. William H. Fletcher, J. L. Pettis Memorial V. A. Hospital, Loma Linda, Calif. Protein kinase C was purified from bovine brain according to the procedure of Walton et al. [Walton, G. M., et al., Anal Biochem., 161:425-437 (1987)], with modifications [Venema, R. C., et al., J. Biol. Chem., 266:5298-5302 (1991)]. The clone for GST-Cdc42 was generously provided by Dr. Channing Der, University of North Carolina, Chapel Hill, N.C. Cellulose thin-layer chromatography sheets were from Kodak.
as §1
PKA and PKC are known to require basic amino acids on the N-terminal side of the phosphorylatable serine/ threonine. To distinguish their substrate specificities from that of γ-PAK, the relative rates of phosphorylation were determined with the synthetic peptide substrates using the conditions for γ-PAK, with the addition of Ca^2+ and phospholipids for PKC. The rates shown in Table 5 are calculated with equivalent units of enzyme; the rate of phosphorylation of the peptide AKRASAA (SEQ ID NO:6) is taken as 100% for all three enzymes. As would be expected, PKA preferentially phosphorylated the peptides that contained RR or RK at the −3 and −2 positions and with […] residues or proline at the −4 and −1 positions inhibitory. PKC recognized SKR>RKS>KKS. The most notable difference between γ-PAK and PKA or PKC is the effect of acidic residues on the susceptibility of the peptide to be phosphorylated. An acidic residue in the −1 or −4 position was beneficial for γ-PAK but was detrimental for both PKA and PKC (Table 5). […] In addition, γ-PAK could not tolerate an arginine in the −3 position when lysine was in the −2 position.

The test system of experiment [2] is γ-PAK. Nature of the experiment: Rates of phosphorylation of synthetic peptides by γ-PAK. It is filed as biochemical, rabbit. The conditions noted are these: for 32P incorporated, %: AKRASAA taken as 100%; for rate of phosphorylation compared to AKRASAA: relative to AKRASAA; for substrate for γ-PAK (in words): synthetic peptides.
From the text: as §3
D. Phosphorylation Assays. Phosphorylation of protein substrates was carried out in 35 μL reaction mixtures containing 20 mM Tris-HCl, pH 7.4, 10 mM MgCl2, 30 mM 2-mercaptoethanol, 0.2 mM ATP (specific activity =1000 cpm/pmol), 2 μg of protein substrate, and 20 units of active γ-PAK (an enzyme unit is defined as the amount of enzyme that incorporates 1 pmol of phosphate into histone IIAS/ min at 30°. Under these conditions, phosphate incorporation was linear and initial rates of phosphorylation were measured. After incubation at 30° C. for 15 min, reactions were terminated by the addition of 5 μL of 100 mM nonlabeled ATP and sample buffer for gel electrophoresis [Hathaway, G. M., et al., Methods Enzymol., 60:495-511 (1979)]. Reaction mixtures were subjected to SDS-PAGE on 15% polyacrylamide gels followed by autoradiography. Phosphorylation was quantified by excising the protein band and counting the incorporated ^32P in a liquid scintillation counter. The specific activity of γ-PAK was 400 pmol min^−1 μg^−1 as reported previously using 0.2 mM ATP and 1 mg/mL mixed histone as substrate [Rooney, R. D., et al., (1996), supra].
as §2

[3] abbreviates: Table 2, influence of basic amino acids, γ-PAK 1.6 units, ATP 0.2 mM.
Where [4] appears, read: Table 3, influence of acidic amino acids.
The mark [5] stands for this setting: Table 4, influence of proline and glycine.
The mark [6] stands for this setting: Cdc42(GTPγS)-activated γ-PAK, peptide 1 mM, KKRKSAA = 100.
Setting [7] is: proteolytically (trypsin) activated γ-PAK, peptide 1 mM, compared to KKRKSAA = 100.
[8] abbreviates: proteolytically activated γ-PAK (5.6 units), peptide 1 mM, 30 min at 30° C.
The mark [9] stands for this setting: γ-PAK, calculated with equivalent units of enzyme.

Chain of γ-PAK (Q29502 249-500 limits assumed): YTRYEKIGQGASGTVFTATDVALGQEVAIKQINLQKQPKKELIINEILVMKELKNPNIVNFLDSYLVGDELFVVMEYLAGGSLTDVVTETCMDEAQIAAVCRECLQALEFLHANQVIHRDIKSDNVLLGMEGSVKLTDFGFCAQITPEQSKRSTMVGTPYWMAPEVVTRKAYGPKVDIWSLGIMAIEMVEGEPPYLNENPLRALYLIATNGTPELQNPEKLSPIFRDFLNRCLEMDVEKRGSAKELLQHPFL

As for “AKRASAA (AKRASAA-NH2) [synthetic peptide with an amide C-terminal group]”, the 32P incorporated with PKA was 4.8 pmol/unit; with PKC, 3.0 pmol/unit; in the experiment on γ-PAK [2] (setting [8]) it was 426 pmol/min/µg; with γ-PAK [2] (setting [9]) it was 26.8 pmol/unit. The “32P incorporated, %” value with PKA, in the experiment on PKC and in the experiment with γ-PAK [2] (γ-PAK) was 100% each time. Further, the Vmax in the experiment with γ-PAK [1] (setting [3]) amounted to 1.04 pmol/min; in the experiment on γ-PAK [1] (setting [4]), 11.04 pmol/min; in the experiment with γ-PAK [1] (setting [5]), 1.04 pmol/min. The Km in the experiment on γ-PAK [1] (setting [3]), with γ-PAK [1] (setting [4]) and in the experiment with γ-PAK [1] (setting [5]) was 460 µM throughout. The “rel rate (%)” value was found to be 189% in the experiment with γ-PAK [2] (setting [6]) and 141% with γ-PAK [2] (setting [7]).
Take “AKRASEA (AKRASEA-NH2) [synthetic peptide with an amide C-terminal group]”: the 32P incorporated is 3.6 pmol/unit with PKA, 0.2 pmol/unit in the experiment with PKC, 326 pmol/min/µg with γ-PAK [2] (setting [8]) and 18.3 pmol/unit in the experiment on γ-PAK [2] (setting [9]). The entries for the “32P incorporated, %” value with PKA, in the experiment with PKC and with γ-PAK [2] (γ-PAK) were 75%, 6% and 68%, respectively. Moreover, in the experiment with γ-PAK [1], the “increase of Km compared to AKRASAA” value is reported as approximately 3 fold. Moreover, the “overall rate of phosphorylation (Vmax/Km) compared to AKRASAA” value in the experiment with γ-PAK [1] is given as 0.7 fold. The Vmax with γ-PAK [1] (setting [4]) amounted to 2.22 pmol/min. Besides, in the experiment on γ-PAK [1] (setting [4]), the Michaelis-Menten constant (Km) (usually the substrate concentration at which the rate is half of its maximum) came to 1420 µM. For the same substance, the results for the “rel rate (%)” value in the experiment with γ-PAK [2] (setting [6]) and in the experiment with γ-PAK [2] (setting [7]) were 88% and 108%, respectively. For the same substance, the “rate of phosphorylation compared to AKRASAA” value with γ-PAK [2] (γ-PAK) came out at 71%.
In the case of “ARRASAA (ARRASAA-NH2) [synthetic peptide with an amide C-terminal group]”, in the experiment on γ-PAK [1] (setting [3]), the Vmax is 2.11 pmol/min. In addition, in the experiment on γ-PAK [1] (setting [3]), the Km turned out to be 650 µM. In addition, the results for the 32P incorporated with PKC, in the experiment with γ-PAK [2] (setting [8]) and in the experiment with γ-PAK [2] (setting [9]) were 18.8 pmol/unit, 391 pmol/min/µg and 25.0 pmol/unit, respectively. For the same substance, the “32P incorporated, %” value with PKC is 570%; in the experiment with γ-PAK [2] (γ-PAK), 93%. The “rel rate (%)” value in the experiment with γ-PAK [2] (setting [6]) was determined as 134%; in the experiment on γ-PAK [2] (setting [7]), 129%. The “substrate for γ-PAK (in words)” value with γ-PAK [2] was “as good a substrate as AKRASAA”.
Take “EKRASAA (EKRASAA-NH2) [synthetic peptide with an amide C-terminal group]”: the 32P incorporated was 1.7 pmol/unit with PKA, 0.1 pmol/unit with PKC, 484 pmol/min/µg in the experiment with γ-PAK [2] (setting [8]) and 30.2 pmol/unit in the experiment with γ-PAK [2] (setting [9]). Moreover, the “32P incorporated, %” value with PKA amounted to 4%; in the experiment with PKC it was 3%; with γ-PAK [2] (γ-PAK), 113%. The “increase of Km compared to AKRASAA” value with γ-PAK [1] is 2 fold. Besides, the “overall rate of phosphorylation (Vmax/Km) compared to AKRASAA” value with γ-PAK [1] is reported as 1.3 fold. The Vmax in the experiment on γ-PAK [1] (setting [4]) and with γ-PAK [1] (text summary b32) was 2.48 pmol/min in each case. In the experiment with γ-PAK [1] (setting [4]), the Km is 890 µM. Moreover, the figures for the “rel rate (%)” value in the experiment with γ-PAK [2] (setting [6]) and with γ-PAK [2] (setting [7]) were 151% and 160%, respectively. Further, the “rate of phosphorylation compared to AKRASAA” value with γ-PAK [2] (γ-PAK) is on record as 113%.
As for “KKRKSAA [model peptide patterned after the phosphorylation site of nucleocapsid protein NC]”, the Vmax with γ-PAK [1] (setting [3]) came out at 1.84 pmol/min; in the experiment with γ-PAK [1] (text b67, b73), 302 pmol/min/µg. The Km in the experiment with γ-PAK [1] (setting [3]) was determined as 610 µM. The 32P incorporated is 11.1 pmol/unit in the experiment on PKC, 302 pmol/min/µg in the experiment with γ-PAK [2] (setting [8]) and 19.2 pmol/unit with γ-PAK [2] (setting [9]). In addition, the “32P incorporated, %” value in the experiment on PKC was determined as 370%; in the experiment with γ-PAK [2] (γ-PAK), 72%. In addition, the “rel rate (%)” value in the experiment on γ-PAK [2] (setting [6]) and in the experiment on γ-PAK [2] (setting [7]) was 100% each time.
Turning to “RKKKSAA (RKKKSAA-NH2) [synthetic peptide with an amide C-terminal group]”, the 32P incorporated is 5.4 pmol/unit with PKA, 3.1 pmol/unit with PKC, 0 pmol/min/µg in the experiment with γ-PAK [2] (setting [8]) and 0.1 pmol/unit with γ-PAK [2] (setting [9]). Also, the “32P incorporated, %” value in the experiment on PKC turned out to be 94%; with γ-PAK [2] (γ-PAK), 0%. The entries for the “rel rate (%)” value with γ-PAK [2] (setting [6]) and in the experiment with γ-PAK [2] (setting [7]) were 3% and 0%, respectively. Further, the “substrate for γ-PAK (in words)” value in the experiment on γ-PAK [2] is listed as “poor substrates”.
